Consider three compounds from article PMC8890504, “Evolution of Brain-Expressed Biogenic Amine Receptors into Olfactory Trace Amine-Associated Receptors” (Molecular Biology and Evolution, 2022).

One assay deals with catfish TAAR13h (Ictalurus punctatus, UniProt A0A2D0SG84). The assay is described as follows: Cell-based receptor activation reporter assay (SEAP / Dual-Glo luciferase). As for the experimental part:
(§1) Fluorescence was measured with a BioTek Microplate reader.
A general note: In a reporter assay the amount or activity of a reporter protein is the signal.

The next assay deals with catfish TAAR13f (Ictalurus punctatus, UniProt A0A2D0SGW4). Described as above. Here is the method:
as §1

Another assay concerns TARL1. The assay is described as follows: Response to 16 ligands at 10 µM, luciferase assay. In kind it is cell-based. The following applies: fig. 5B. As for the experimental part: Ligand profiles and expression patterns of HTR4, TARL, and TAAR1. (A) qPCR analysis of different receptors in zebrafish tissues. Gapdh serves as a control. (B) Response of HTR4, TARL, TAARC1, and TAAR1 to 16 ligands at 10 μM. The heatmap is based on the ratio of fluorescence intensity of ligand–receptor interaction and no ligand controls in the luciferase assay. […] (C) PhyloPCA analysis on the responses of HTR4, TARL, TAARC1, and TAAR1 to these 16 ligands. […] Dots colored by receptor clades represent the ligand responses of receptors on the first two PC axes. Ligand eigenvectors are represented by lines and colored according to the ligand clusters. A ligand name is shown at the tip of the line if its eigenvector has a higher contribution (compared with other ligands) to either PC1 or PC2. […] (D) The presence of HTR4, TARL1, TARL2, and TAAR1 in several representative species in vertebrates is plotted. […]
Hana3A cells were plated onto 96-well plates (Greiner bio-one) with 50 µl growth medium (DMEM medium with 10% BCS and 5% penicillin–streptomycin solution with puromycin) and cultured at 37 °C with 5% CO2. […] The chemiluminescence of firefly luciferase and renilla luciferase were measured with a Biotek Microplate reader using the Dual-Glo Luciferase Assay System (Promega).

Another assay addresses mouse TAAR1 (Mus musculus, UniProt Q923Y8). The assay is described as follows: cell-based. Particulars: mTAAR1. The text has this: (§2) Next, we conducted high-throughput screening to further explore the functional properties of these aminergic receptors. We cloned 248 TAARs from 11 mammals (human, mouse, rat, guinea pig, hamster, cat, horse, rabbit, sheep, rhesus, and wild boar), two reptiles (alligator and chicken), six teleosts (zebrafish, catfish, fugu, medaka, salmon, and pufferfish), one lobed-finned fish (coelacanth), one holost fish (spotted gar), and one cartilaginous fish (bamboo shark) (fig. 2A). We also cloned eight TARLs from coelacanth, zebrafish, catfish, fugu, medaka, spotted gar, shark, and 28 TARLLs from sea lamprey (supplementary table S2, Supplementary Material online). In addition, we cloned two HTR4s from mouse and zebrafish. We then challenged all of the cloned receptors with a ligand library comprised 97 amines at 100 µM.
We then compared the responses of HTR4 from mouse and zebrafish, TARL1 from zebrafish, catfish, fugu, medaka, spotted gar, and coelacanth, TARL2 from coelacanth and shark, TAAR1 from mouse and zebrafish to the 16 ligands at 10 µM (fig. 5B).
(§3) HEK293 cells were plated onto poly-D-lysine (Sigma–Aldrich) preincubated 96-well plates (Corning) with 50 µl growth medium (DMEM medium with 10% BCS and 5% penicillin–streptomycin solution) and cultured for 18–24 h. Receptor plasmids were cotransfected with Cre-SEAP plasmid using polyethylenimine (PEI, Polysciences) and incubated at 37 °C with 5% CO2. About 4 h later, cells were incubated with or without test compounds diluted in serum-free DMEM for 48 h, followed by incubating for 2 h at 70 °C. After returning to room temperature, 50 µl supernatant from each well was incubated with an equal volume of 0.3 mM 4-methylumbelliferyl phosphate (4-MUP, Sigma–Aldrich) in 2 M diethanolamine bicarbonate (Sigma–Aldrich), pH 10.0 for 15 min. Fluorescence was measured with a BioTek Microplate reader.
(§4) Hana3A cells were plated onto 96-well plates (Greiner bio-one) with 50 µl growth medium (DMEM medium with 10% BCS and 5% penicillin–streptomycin solution with puromycin) and cultured at 37 °C with 5% CO2. After 18–24 h, cells in each well were cotransfected with 50 ng receptor plasmid, 10 ng CRE-Luc, 10 ng pRL-SV40, and 10 ng mRTPs using Lipofectamine 2000 (Invitrogen), and incubated for 18 h. Medium was then replaced by 25 µl CD293 (Invitrogen) containing 1% glutamine with or without test compounds for 4 h. The chemiluminescence of firefly luciferase and renilla luciferase were measured with a Biotek Microplate reader using the Dual-Glo Luciferase Assay System (Promega).

Another assay has as its target (UniProt Z9G6W3R3V9). The assay is described as follows: Cell-based receptor activation reporter assay (SEAP / Dual-Glo luciferase). The following applies: coelacanth TARL1. As for the experimental part:
as §1

For another assay, the target named is coelacanth TARL2 (Latimeria chalumnae, UniProt H3AWX3). The description is as above. As for the experimental part: as §1
The target in another assay is catfish TAAR13g (Ictalurus punctatus, UniProt A0A2D0SG81). The assay is described as above. Here is the method: as §1
In the next assay the target is zebrafish TAAR1 (Danio rerio, UniProt Q5QNN1). Described as above. The following applies: zTAAR1. As for the experimental part:
as §1

A further assay concerns the target zebrafish TARL1 (Danio rerio, UniProt A0A8M1Q794). Described as above. Here is the method: as §1
A further assay has as its target spotted gar TARL1 (Lepisosteus oculatus, UniProt W5NNR6). The description is as above. Here is the method:
as §1

A further assay concerns the target coelacanth TAARC1b (Latimeria chalumnae, UniProt H3A8V0). Described as above. As for the experimental part:
as §1

The next assay has as its target mouse HTR4 (Mus musculus, UniProt P97288). The assay is described as follows: cell-based.
Text: as §2, §3, §4

The target in the next assay is shark TARL2 (Chiloscyllium punctatum, UniProt A0A401SGR3). As to the kind of experiment: Cell-based receptor activation reporter assay (SEAP / Dual-Glo luciferase). On the set-up: species or system bamboo shark. Here is the method:
as §1

In another assay the target is TARLL1b (Petromyzon marinus, UniProt A0AAJ7TCG4). The assay is described as above. On the set-up: species or system sea lamprey. Particulars: TARLL1b. As for the experimental part:
as §1

The next assay deals with medaka TAAR21f. The description is as above. As for the experimental part:
as §1

Another assay deals with spotted gar TAAR1b (Lepisosteus oculatus, UniProt W5NMY1). Described as above. As for the experimental part: as §1

The term EC50 denotes the concentration that produces a half-maximal response. High values mean weaker potency, low ones greater potency.

mouse TAAR1, sequence (Q923Y8 whole entry): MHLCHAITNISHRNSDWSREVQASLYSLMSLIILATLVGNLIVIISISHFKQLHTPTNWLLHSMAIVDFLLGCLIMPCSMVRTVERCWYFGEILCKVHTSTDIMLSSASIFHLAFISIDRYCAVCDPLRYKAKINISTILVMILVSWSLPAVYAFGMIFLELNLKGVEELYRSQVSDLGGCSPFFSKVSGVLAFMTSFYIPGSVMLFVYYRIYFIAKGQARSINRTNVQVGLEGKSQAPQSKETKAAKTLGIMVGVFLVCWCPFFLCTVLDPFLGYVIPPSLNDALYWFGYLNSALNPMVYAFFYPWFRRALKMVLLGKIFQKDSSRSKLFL
catfish TAAR13h, sequence (A0A2D0SG84 entry or part of it): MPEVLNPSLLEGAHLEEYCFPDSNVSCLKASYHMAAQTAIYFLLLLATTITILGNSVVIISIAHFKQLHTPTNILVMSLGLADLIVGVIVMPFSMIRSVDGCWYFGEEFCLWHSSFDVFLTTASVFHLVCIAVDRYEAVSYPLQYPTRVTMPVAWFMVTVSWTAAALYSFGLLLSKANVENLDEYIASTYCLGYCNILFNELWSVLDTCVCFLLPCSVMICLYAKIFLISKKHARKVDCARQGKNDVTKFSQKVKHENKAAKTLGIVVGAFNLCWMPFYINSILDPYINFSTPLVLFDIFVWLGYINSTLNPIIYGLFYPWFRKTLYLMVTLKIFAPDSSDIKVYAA
mouse HTR4, sequence (P97288 whole entry): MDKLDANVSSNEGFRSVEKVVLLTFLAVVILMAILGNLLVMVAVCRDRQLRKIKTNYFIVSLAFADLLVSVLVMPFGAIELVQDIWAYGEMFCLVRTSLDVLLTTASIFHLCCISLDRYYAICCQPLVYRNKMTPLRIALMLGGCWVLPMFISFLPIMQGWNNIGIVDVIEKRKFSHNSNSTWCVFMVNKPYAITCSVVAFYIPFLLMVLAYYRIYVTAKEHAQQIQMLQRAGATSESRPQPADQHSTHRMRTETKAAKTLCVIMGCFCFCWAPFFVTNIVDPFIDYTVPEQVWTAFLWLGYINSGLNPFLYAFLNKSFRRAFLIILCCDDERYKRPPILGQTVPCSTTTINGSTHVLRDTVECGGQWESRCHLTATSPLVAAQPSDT
TARLL1b, sequence (A0AAJ7TCG4 entry or part of it): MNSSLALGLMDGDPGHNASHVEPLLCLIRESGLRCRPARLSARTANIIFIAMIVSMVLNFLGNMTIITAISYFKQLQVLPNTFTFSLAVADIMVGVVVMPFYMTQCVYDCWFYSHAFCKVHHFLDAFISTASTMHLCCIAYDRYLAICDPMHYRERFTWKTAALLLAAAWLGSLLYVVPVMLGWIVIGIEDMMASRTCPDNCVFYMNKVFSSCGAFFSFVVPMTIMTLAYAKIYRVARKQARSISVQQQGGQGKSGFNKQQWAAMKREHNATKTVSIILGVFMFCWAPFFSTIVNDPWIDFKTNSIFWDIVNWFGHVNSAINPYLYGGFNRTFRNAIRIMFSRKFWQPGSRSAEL
coelacanth TARL2, sequence (H3AWX3 entry or part of it): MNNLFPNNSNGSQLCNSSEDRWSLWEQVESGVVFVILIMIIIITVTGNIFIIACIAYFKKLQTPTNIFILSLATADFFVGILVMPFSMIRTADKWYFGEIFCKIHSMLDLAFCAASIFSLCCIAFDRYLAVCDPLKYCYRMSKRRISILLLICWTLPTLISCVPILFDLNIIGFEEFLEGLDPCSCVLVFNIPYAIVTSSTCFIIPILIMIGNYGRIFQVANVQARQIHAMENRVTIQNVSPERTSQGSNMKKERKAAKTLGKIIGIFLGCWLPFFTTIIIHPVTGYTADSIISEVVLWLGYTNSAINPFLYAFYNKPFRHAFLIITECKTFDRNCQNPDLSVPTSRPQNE
zebrafish TAAR1, sequence (Q5QNN1 entry or part of it): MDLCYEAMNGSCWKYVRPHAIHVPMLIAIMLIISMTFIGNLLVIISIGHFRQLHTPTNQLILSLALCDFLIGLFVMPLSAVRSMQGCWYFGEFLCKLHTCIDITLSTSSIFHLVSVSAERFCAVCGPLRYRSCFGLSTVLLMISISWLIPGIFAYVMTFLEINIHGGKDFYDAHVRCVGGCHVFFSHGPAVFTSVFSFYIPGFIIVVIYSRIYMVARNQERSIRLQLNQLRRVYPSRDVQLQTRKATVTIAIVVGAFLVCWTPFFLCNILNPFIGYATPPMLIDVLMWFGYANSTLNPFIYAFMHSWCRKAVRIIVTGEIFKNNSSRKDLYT
catfish TAAR13g, sequence (A0A2D0SG81 entry or part of it): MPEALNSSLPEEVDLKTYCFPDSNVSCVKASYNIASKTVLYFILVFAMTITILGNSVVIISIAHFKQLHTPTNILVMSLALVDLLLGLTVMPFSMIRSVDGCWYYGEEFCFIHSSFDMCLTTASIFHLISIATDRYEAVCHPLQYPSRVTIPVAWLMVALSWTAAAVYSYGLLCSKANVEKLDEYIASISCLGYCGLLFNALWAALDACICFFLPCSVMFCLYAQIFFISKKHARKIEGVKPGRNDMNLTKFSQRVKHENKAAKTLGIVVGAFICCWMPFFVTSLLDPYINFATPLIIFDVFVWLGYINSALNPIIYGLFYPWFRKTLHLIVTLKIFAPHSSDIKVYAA
catfish TAAR13f, sequence (A0A2D0SGW4 entry or part of it): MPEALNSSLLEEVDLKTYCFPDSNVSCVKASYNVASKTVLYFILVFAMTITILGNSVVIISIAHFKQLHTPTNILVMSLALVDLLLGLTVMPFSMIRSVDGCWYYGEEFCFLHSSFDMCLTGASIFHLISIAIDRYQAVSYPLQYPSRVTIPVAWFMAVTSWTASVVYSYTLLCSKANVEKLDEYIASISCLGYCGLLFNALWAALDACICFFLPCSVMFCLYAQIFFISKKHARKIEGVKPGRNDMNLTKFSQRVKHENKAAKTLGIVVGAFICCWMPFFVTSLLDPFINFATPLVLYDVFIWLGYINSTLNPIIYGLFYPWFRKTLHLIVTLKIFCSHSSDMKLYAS
spotted gar TAAR1b, sequence (W5NMY1 entry or part of it): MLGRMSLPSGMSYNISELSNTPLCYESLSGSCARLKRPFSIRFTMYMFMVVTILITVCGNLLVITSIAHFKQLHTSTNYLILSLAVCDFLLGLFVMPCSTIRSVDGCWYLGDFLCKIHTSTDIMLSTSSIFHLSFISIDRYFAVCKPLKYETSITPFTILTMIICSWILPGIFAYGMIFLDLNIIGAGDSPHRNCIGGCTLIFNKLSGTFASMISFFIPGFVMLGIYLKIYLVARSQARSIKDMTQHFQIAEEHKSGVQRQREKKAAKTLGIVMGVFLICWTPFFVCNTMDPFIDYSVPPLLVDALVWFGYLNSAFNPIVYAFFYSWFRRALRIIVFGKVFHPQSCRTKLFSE
shark TARL2, sequence (A0A401SGR3 entry or part of it): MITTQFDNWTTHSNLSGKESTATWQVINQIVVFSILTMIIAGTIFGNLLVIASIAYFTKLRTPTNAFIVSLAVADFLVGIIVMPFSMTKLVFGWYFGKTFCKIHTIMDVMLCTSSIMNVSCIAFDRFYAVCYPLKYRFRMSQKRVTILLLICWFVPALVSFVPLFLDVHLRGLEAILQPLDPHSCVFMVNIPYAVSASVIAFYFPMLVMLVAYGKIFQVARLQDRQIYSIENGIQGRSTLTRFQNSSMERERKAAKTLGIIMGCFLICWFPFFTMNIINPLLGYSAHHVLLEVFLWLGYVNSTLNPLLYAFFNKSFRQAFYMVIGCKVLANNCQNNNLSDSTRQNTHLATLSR
spotted gar TARL1, sequence (W5NNR6 entry or part of it): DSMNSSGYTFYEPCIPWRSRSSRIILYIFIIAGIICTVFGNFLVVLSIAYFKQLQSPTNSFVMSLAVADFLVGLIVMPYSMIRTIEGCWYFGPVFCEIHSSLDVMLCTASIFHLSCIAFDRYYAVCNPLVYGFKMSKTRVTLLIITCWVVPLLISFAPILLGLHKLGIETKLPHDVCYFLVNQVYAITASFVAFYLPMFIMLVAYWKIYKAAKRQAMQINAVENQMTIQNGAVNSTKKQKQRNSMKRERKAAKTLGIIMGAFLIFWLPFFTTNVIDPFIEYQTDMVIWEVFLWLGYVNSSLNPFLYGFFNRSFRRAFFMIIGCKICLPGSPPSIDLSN
coelacanth TAARC1b, sequence (H3A8V0 entry or part of it): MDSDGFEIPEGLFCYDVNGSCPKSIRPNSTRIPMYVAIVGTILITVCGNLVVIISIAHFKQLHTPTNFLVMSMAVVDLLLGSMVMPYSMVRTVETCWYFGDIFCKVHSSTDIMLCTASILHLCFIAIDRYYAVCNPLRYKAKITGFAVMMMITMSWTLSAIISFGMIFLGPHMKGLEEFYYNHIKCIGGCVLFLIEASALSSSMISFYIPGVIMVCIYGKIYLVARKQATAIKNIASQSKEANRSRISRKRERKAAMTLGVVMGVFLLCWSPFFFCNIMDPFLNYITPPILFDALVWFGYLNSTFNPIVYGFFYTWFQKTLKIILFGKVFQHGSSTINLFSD
zebrafish TARL1, sequence (A0A8M1Q794 entry or part of it): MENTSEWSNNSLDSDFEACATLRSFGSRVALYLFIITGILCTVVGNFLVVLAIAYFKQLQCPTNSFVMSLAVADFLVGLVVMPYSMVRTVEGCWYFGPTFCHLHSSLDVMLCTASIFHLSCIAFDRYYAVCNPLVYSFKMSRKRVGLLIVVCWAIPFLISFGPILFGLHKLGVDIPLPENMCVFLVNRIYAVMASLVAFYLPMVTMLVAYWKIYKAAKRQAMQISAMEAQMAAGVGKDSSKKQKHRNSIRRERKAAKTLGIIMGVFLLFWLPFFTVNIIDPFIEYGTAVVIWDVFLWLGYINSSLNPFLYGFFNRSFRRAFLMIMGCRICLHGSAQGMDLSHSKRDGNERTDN

As to `N=C(N)NCCCCN` [Agmatine, agmatine], the values for the EC50 on catfish TAAR13h and on catfish TAAR13f were 165 µM and 0.04 nM, respectively.
With `NCCc1c[nH]c2ccccc12` [Tryptamine, tryptamine], in the assay with TARL1, the TARL1 ligand profile result is given as “ligands include”. Besides, the EC50 on mouse TAAR1 is ~28 µM; at (UniProt Z9G6W3R3V9) it was 18.1 µM; at coelacanth TARL2 it was ~200 µM; at catfish TAAR13g, ~30 µM; at zebrafish TAAR1 it was ~52 µM; on zebrafish TARL1, 0.04 µM. Besides, the EC50 at spotted gar TARL1 is 3.1 µM; at coelacanth TAARC1b, ~150 µM; at mouse HTR4 it was ~180 µM; on shark TARL2 it was ~40 µM; on TARLL1b it was ~100 µM.
For the compound `NCCc1ccc(O)cc1` [Tyramine, tyramine], the EC50 in the assay with medaka TAAR21f is 0.09 µM; at spotted gar TAAR1b it was 0.7 µM.
